Values after ≈ are worked out from the molar mass of the structure shown.
Legend:
[1] = Assay of kinetic solubility; format: physicochemical; conditions: buffer solution, aqueous buffer, kinetic from dmso stock, pH 6.5 in table head (method says pH 7.4), 24 hours room temperature, theoretical maximum 200 μM
Method: The assay compound was dissolved in DMSO to prepare 10 mmol/L stock solution. 980 μL of dissolution medium was added to a 2 mL glass vial with a screw cap using a pipette (Eppendorf Research Company). […] The final concentrations of the assay compound and DMSO solution were 200 μM and 2%, respectively. The vias were capped. The theoretical maximum concentration was 200 μM. The mixture was shaken at 880 rpm at room temperature for 24 hours. The vials were centrifuged at 13,000 rpm for 30 minutes. 200 μL of supernatant was added to a 96-well plate using a digital pipette.

[2] = Pharmacokinetic evaluation in SD rat (oral); format: in vivo; conditions: about 2 mg/kg
BTK^C481S = BTK^C481S (Homo sapiens (Human), UniProt Q06187, C481S); assay: BTK enzyme activity assay; format: biochemical; conditions: 200 μM ATP; 33P-ATP, filter-binding method
Method: The specific assay process of BTK enzyme activity assay is as follows: Buffer: 20 mM 2-[4-(2-hydroxyethyl)-1-piperazinyl]ethanesulfonic acid (Hepes) (pH 7.5), 10 mM magnesium chloride, 1 mM ethylenebis(oxyethylenenitrilo)tetraacetic acid (EGTA), 0.02% polyoxyethylene dodecyl ether (Brij35), 0.02 mg/mL BSA, 0.1 mM sodium vanadate (Na3VO4), 2 mM dithiothreitol (DTT), 1% DMSO, 200 μM adenosine triphosphate (ATP). • 1. The substrate was prepared in freshly prepared reaction buffer; • 2. The required cofactor was added to the above-mentioned substrate solution; • 3. The kinase BTK^C481S was added to the above-mentioned substrate solution and mixed well; • 4. The compound dissolved in DMSO was added to the kinase reaction mixture by Echo550 (Acoustic technology; nanoliter range), and the mixture was incubated at room temperature for 20 minutes; • 5. ^33P-ATP (specific radioactivity of 10 μCi/μL) was added to the reaction mixture to initiate the reaction; • 6. The mixture was incubated at room temperature for 2 hours; • 7. The radioactivity was detected by filter-binding method; • 8. Kinase activity data represented the percentage of remaining kinase activity in the assay sample compared to the vehicle (dimethyl sulfoxide) reaction.

[3] = Plasma protein binding (PPB) assay, M; format: in vitro ADME; conditions: mouse, dialysis 4 hr 37° C.
Method: (§1) Assay procedure: 995 μL of blank plasma of various genera were weighed, and 5 μL of assay compound working solution (400 μM) or warfarin working solution (400 μM) was added so that the final concentrations of the assay compound and warfarin in plasma sample were each 2 μM. The samples were mixed thoroughly. The final concentration of DMSO (the organic phase) was 0.5%. 50 μL of the plasma samples of the assay compound and warfarin were pipetted to a sample receiving plate (in triplicate), and the corresponding volume of corresponding blank plasma or buffer was added immediately, so that the final volume in each sample well was 100 μL, wherein the volume ratio of plasma:dialysis buffer was 1:1. 500 μL of stop solution was then added to these samples. These samples were used as T0 samples for determination of recovery and stability. […] All samples were subjected to protein precipitation, and then analyzed by LC/MS/MS. Bound rate and recovery rate of protein were calculated using the following formulae: % Unbound=100*F/T, % Bound=100−% Unbound, % Recovery=100*(F+T)/T0 (wherein F is the peak area ratio of the compound in the dialysate after 4 h of dialysis; T is the peak area ratio of the compound in the plasma after 4 h of dialysis; To is the peak area ratio of the compound in the plasma sample at time zero).

[4] = Plasma protein binding (PPB) assay, R; format: in vitro ADME; conditions: rat, dialysis 4 hr 37° C.
Method: as §1

[5] = Pharmacokinetic evaluation in SD rat (intravenous); format: in vivo; conditions: about 0.5 mg/kg
Method: Assay purpose: To assay the pharmacokinetics of the compound in SD rat (intravenous)
Pharmacokinetic study of oral and intravenously injected compound 4 and reference example 1 in SD rat.
Compound 4 and reference example 1 were mixed with the solvent (10% NMP/60% PEG400/30% H2O). The mixture was vortexed and sonicated to prepare a clarified solution of 0.5 mg/mL. […] Whole blood was collected for a certain period of time to prepare the plasma. Drug concentration was analyzed by LC-MS/MS, and pharmacokinetic parameters were calculated by Phoenix WinNonlin software (Pharsight, USA).

[6] = AUCu = AUC0-inf * Unbound PPB (in vivo assay of PPB in rat)

Sequence of BTK^C481S (Q06187 whole entry C481S): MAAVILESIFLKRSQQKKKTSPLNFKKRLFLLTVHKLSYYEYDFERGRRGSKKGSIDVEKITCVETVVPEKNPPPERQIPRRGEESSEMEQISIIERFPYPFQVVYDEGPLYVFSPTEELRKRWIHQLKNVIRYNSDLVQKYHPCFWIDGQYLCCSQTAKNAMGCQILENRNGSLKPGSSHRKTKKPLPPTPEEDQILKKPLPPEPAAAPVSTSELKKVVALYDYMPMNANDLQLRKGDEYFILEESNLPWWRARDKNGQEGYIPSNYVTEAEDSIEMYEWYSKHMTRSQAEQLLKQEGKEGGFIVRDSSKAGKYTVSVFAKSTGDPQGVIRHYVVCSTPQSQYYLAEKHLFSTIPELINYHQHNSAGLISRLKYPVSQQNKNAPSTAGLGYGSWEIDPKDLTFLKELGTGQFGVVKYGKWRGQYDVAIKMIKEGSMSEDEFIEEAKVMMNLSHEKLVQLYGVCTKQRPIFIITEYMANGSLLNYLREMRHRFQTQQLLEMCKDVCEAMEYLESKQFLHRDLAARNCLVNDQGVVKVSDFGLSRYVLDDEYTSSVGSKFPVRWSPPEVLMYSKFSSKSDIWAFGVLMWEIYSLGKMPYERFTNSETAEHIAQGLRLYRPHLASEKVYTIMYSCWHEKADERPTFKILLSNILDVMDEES

solubility at 24 h [1]: 1.1 µM (≈ 0.56 µg/mL)
AUCu [2, 6]: 7.8 nM·h
AUC(0-inf) ([2]; male, plasma): 3.89 µM·h
Cmax ([2]; male, plasma): 587 nM
bioavailability ([2]; male, plasma): 57.3%
half-life ([2]; male, plasma): 140 min
IC50 (BTK^C481S): 7.3 nM
fraction unbound at 4 h, 2 μM [3]: 0.004
fraction unbound at 4 h, 2 μM [4]: 0.002
AUCu [5, 6]: 3.4 nM·h
AUC(0-inf) ([5]; male, plasma): 1.7 µM·h
C0 ([5]; male, plasma): 852 nM
Vd ([5]; male, plasma): 1.42 L/kg
clearance ([5]; male, plasma): 9.8 mL/min/kg
half-life ([5]; male, plasma): 109 min
SMILES: CO[C@@H]1C[C@@H](CO)OC[C@@H]1Nc1ncnc2[nH]cc(C(=O)c3ccc(Oc4ccccc4)cc3Cl)c12 [Compound 4]

From patent publication US20230357248A1, “PYRROLOPYRIMIDINE COMPOUND AS BTK INHIBITOR AND USE THEREOF” (MEDSHINE DISCOVERY INC., priority 2019, published 2023)
